The values that follow come from patent US20220000871A1, “METHODS AND COMPOSITIONS FOR TREATING NEURODEGENERATIVE DISEASES USING MODULATORS OF PHOSPHOGLYCERATE KINASE 1 (PGK1) ACTIVITY” (UNIVERSITY OF IOWA RESEARCH FOUNDATION, priority 2019, published 2022).

Molecules are shown by their SMILES.

One assay concerns MPTP-treated mice. Briefly: MPTP mouse model. The class given is in vivo. The settings on record: SNc, western blot, FIG. 17B. How it is done:
A) Schematic for experiments in panels B-K. C57BL/6 mice (8 week-old) received 4 i.p. injections of MPTP (20 mg/kg at 2 hr intervals) or vehicle on day 0. […] N=6. […] Quantification of TH protein normalized to control (C,D). N=6. E-G) Example of immunostaining of TH in SNc and striatum (E, scale bars, 500 μm SNc, 1 mm striatum). Quantification of TH-positive neurons in SNc (F) and TH intensity in the striatum (G). N=6. H,I) Dopamine (DA) content in striatum and SnC. N=6. J) Percentage of TH-positive neurons that were positive for TUNEL staining. N=6. K) Behavioral response of mice in rotarod test. Data are duration that mice remained on an accelerated rolling rod normalized to mice at day 0. N=8. Data are examples and mean±SEM. […] Statistical analysis at day 7 and day 14 was Mann-Whitney. In the figure, *p<0.05, **p<0.01.
FIG. 10. […] A) Schematic of experiments in panels B-F. C57BL/6 mice (8 week-old) received 4 i.p. injections of MPTP (20 mg/kg at 2 hr intervals) or vehicle on day 0. […] B,C) Pyruvate and ATP levels in mouse SNc. N=6. D) Mitochondrial DNA (mDNA, 16S and ND1) relative to nuclear DNA (nDNA, intron β-globin) by quantitative PCR of mouse striatum and SNc. N=3. E,F) VDAC (E) and PHB1 (F) protein levels in striatum and SNc assayed by western blot and normalized to control. N=6.
FIG. 12. […] A) Schematic for experiments in panels B-J. C57BL/6 mice (8 week-old) received 4 i.p. injections of MPTP (20 mg/kg at 2 hr intervals) or vehicle on day 0. […] B) Example of TH immunostaining in the SNc on days 7 and 14. Scale bar, 500 μm. C-F) Measurement of DOPAC in mouse striatum (C) and SNc (D) and measurement of HVA in striatum (E) and SNc (F). (N=6). G) Example of TH and TUNEL co-staining in the SNc. TH (green), TUNEL (red), and DAPI (nuclei, blue). Scale bar, 25 μm. Quantitative data are in FIG. 2J. H) Left panels are Nissl staining of neurons in the striatum. Samples were obtained 7 days after MPTP injection. Right panels show the quantification. […] Scale bar, 400 μm. N=3 per group. I,J) Behavioral response of mice in the pole test. (I) Time mice took to turn their heads from upward to downward. (J) Time mice took to climb down the pole. N=8.
MPTP was injected (i.p.) on one day at 20 mg/kg for four times at 2-hour intervals, as previously described (4). […] At the end of the drug or saline treatment, behavioral tests including rotarod test and pole test were carried out before the animals were sacrificed.
The rotarod test was carried out using an automated rotarod (E103, UGO BASILE). At a fixed speed of 15 revolutions per minute (rpm), mice were pre-trained for two consecutive days until they were able to remain on the rod for more than 60 seconds. […] The latency to fall was recorded for a maximum recording time of 600 seconds. The behavior was monitored by a video camera.
This test was carried out by leaving a pole in the cage where the mice were housed. The pole test was performed on the 14th day after MPTP injection as previously described (9). The mouse was placed in a head-upward position on top of a vertical pole (diameter 8 mm, height 55 cm) with a ball (diameter 2.5 cm) on the head of the pole. The pole was wrapped with the nylon gauze to prevent the mouse from slipping down. Each mouse was trained twice before testing. The time that the mouse took to turn his head from upward to downward (Time: Turn) and the time the mouse took to reach the floor with his forepaws (Time: Locomotion Activity) were recorded. Each mouse was tested three times with 5 min. intervals, and the average time was quantified.

Assay [1] deals with Hela cell stably expressed FUS-GFP. Kind of assay: Hela cells stably expressing FUS-GFP. The class given is cell-based. From the text:
FIG. 19. Relative ATP levels in Hela cells expressing FUS-GTP after treatment with alfazosin (AZ) and rotenone (Rot).
FIG. 20. Expression levels of FUS-GTP in cells treated with alfazosin (AZ), rotenone (Rot), and 17AAG, an inhibitor of the ATPase of HSP90.
FIG. 21. Fluorescence recovery of FUS-GTP in Hela cells after photobleaching.
We studied Hela cell stably expressed FUS-GFP to determine whether alfazosin (AZ) affected the molecule biology of FUS. (See FIG. 19). FUS forms phase-separated aggregates in cells and is commonly used to test agents that enhance or inhibit aggregate formation. The cells were maintained under mild hypoxic condition (5% oxygen), in which mitochondria function at their highest level. Alfazosin (AZ) was added in the culture medium with or without rotenone, a mitochondrial respiration inhibitor. 60 hours later, we measured the ATP level. The control (without AZ) is set as 1 (N=3).
We quantified FUS-GFP protein levels using actin as a protein loading control. (See FIG. 20). Rotenone (Rot) is a mitochondrial respiration inhibitor, 17AAG is an inhibitor of the ATPase of HSP90. The control level of FUS/actin is set as 1, and relative ratio of other treatment is compared.
(See FIG. 21). After 30 seconds photobleaching, the recovery of GFP signal was measured and plotted. N=10.

Assay [2] has as its system Hek293T cells expressing APPswe-GFP. Kind of assay: Hek293T cells transfected with APPswe-GFP. The class given is cell-based. The settings on record: 24 hours. An excerpt: FIG. 22. Expression of amyloid precursor protein (APP) Swedish mutation tagged with GFP (APPswe-GFP) in transfected Hek293T cells. Left panel—expression of GFP in cells treated with alfazosin (AZ). Right panel—relative intensity versus treatment with increasing concentrations of AZ.
FIG. 23. Western blot quantification of APPswe-GFP in transfected Hek293T cells treated with increasing concentration of alfazosin (AZ).
We also studied Hek293T cells that were transfected with the amyloid precursor protein (APP) Swedish mutation tagged with GFP (APPswe-GFP). (See FIG. 22). After transfection, AZ (1-10 μM) was added for 24 hours. The GFP intensity without AZ treatment was set as 1.
AZ (1-100 μM) was added for 24 hours to Hek293T cells expressing APPswe-GFP. Then, cell lysates were collected for protein quantification by western blot. (See FIG. 23). The APP/actin ratio was plotted.

The test system of assay [3] is M17 human neuroblastoma cells. Briefly: Glycolysis and mitochondrial function in M17 cells. To be noted: in vitro, 10 μM, 24 hr (ECAR).
Procedure: Cells were incubated with mild hypoxia for 12 hr before study. Cells were cultured in a sealed chamber (Stemcell Technologies Vancouver, Canada) that was flushed with a humidified gas mixture composed of 5% 02, 5% carbon dioxide (CO2), and 90% nitrogen (N2) for 12 hr. […] Assays of ATP, pyruvate, and citrate synthase activities (CS) were performed according to the manufacturer's instructions.
A Seahorse XV analyzer (XF^e-24, Seahorse Bioscience, Billerica, Mass., USA) was used to measure the oxygen consumption rate (OCR) and the extracellular acidification rate (ECAR) as previously described (18). The M17 cells and iPS cells were seeded in XF^e 24-well plates (Seahorse Bioscience), while the plates used for iPS cells were poly-D-lysine pre-coated. Assay medium was prepared by supplementing Seahorse XF^eBaseMedium minimal DMEM (Seahorse Bioscience) with 2 mM L-glutamine for a Glycolysis Stress Test assay or 2 mM L-glutamine, 1 mM pyruvate and 10 mM glucose for a Mito Stress Test assay (Sigma). pH was adjusted to 7.4 at 37° C. Probes (Seahorse Bioscience) were hydrated in the calibrant (Seahorse Bioscience) in a non-CO2 incubator at 37° C. overnight. Cells were washed twice with assay medium and kept in a non-CO2 incubator at 37° C. for 1 hr before analysis. Glucose, oligomycin and 2-deoxy-glucose (2-DG) were pre-loaded in the probe plate for Glycolysis Stress Test, while oligomycin, FCCP and a mixture of rotenone and antimycin A were used for Mito Stress Test.
Citrate synthase (CS) activity, LDH assay and pyruvate level were detected using commercial kits according to the manufacturer's directions. ATP content in animal tissues and M17 cells were detected with the ATP assay kit following the manufacturer's directions.

As for `COc1cc2nc(N(C)CCCNC(=O)C3CCCO3)nc(N)c2cc1OC` (stereo not drawn) [alfuzosin], the “tyrosine hydroxylase levels in MPTP-treated mice” value with MPTP-treated mice was “increased”. In addition, in assay [1] (5% oxygen, 60 hours, with rotenone), the “ATP increase with rotenone” value is on record as “abolished”. Moreover, the ATP level result in assay [1] (5% oxygen, 60 hours, without rotenone) is “increases”. For the same compound, the FUS-GFP protein levels result in assay [1] (FUS/actin, western) is recorded as “reduced”. The “aggregation of APPswe-GFP (GFP intensity)” value in assay [2] (AZ 1-10 μM) is “decrease”. Besides, the “APPswe-GFP levels (APP/actin ratio, western blot)” value in assay [2] (AZ 1-100 μM) was “reduces”. Moreover, the glycolysis entry in assay [3] was “increased”.

`COc1cc2nc(N3CCN(C(=O)C4COc5ccccc5O4)CC3)nc(N)c2cc1OC` (stereo not drawn) [doxazosin]: the “tyrosine hydroxylase levels in MPTP-treated mice” value in the assay on MPTP-treated mice is given as “increased”. The glycolysis result in assay [3] was “increased”.
